Experimental data published in patent US8541406B2, “Thiadiazole derivatives for the treatment of neurodegenerative diseases” (NV reMYND, priority 2006, dated 2013).
“Also recorded” adds a separate entry of the source.

Assays:
M17-SYNwt cells = test: α-synuclein cytotoxicity assay (LDH leakage from paraquat-treated cells); assay type: cell-based, human; conditions: for % I: percent inhibition of synuclein cytotoxicity, LDH release, at most effective concentration of test cmpd; for EC50: Homo sapiens
Method: 1,2,4-thiadazole compounds made according to the methods described herein were screened for activity using the α-synuclein cytotoxicity assay as described above. Dose responses were carried out on all compounds found to be active (10 point curves in duplicate).

[1] = test system: dopaminergic substantia nigra neurons; test: In vivo inhibition of paraquat-triggered loss of substantia nigra neurons (TH immunohistochemistry); conditions: mice, paraquat intraperitoneal, compound not higher than 20 mg/kg body weight/day, 8 weeks, versus vehicle
Method: In order to model neuronal loss in the substantia nigra region of the brain, mice were treated with paraquat (intraperitoneal) at a dose not higher than 8 mg/kg/day for a continuous period of 15-100 days. These mice were also chronically co-treated during that period with: • compound 60 (1-[4-methoxyphenylsulfonyl]-4-[3-(4-methylbenzyl)-1,2,4-thiadiazol-5-yl]-2-methylpiperazine), or • compound 32 (1-[4-methoxyphenylsulfonyl]-4-[3-(4-fluorobenzyl)-1,2,4-thiadiazol-5-yl]piperazine), or • compound 53 (1-[4-methoxyphenylsulfonyl]-4-[3-(3-methoxy-benzyl)-1,2,4-thiadiazol-5-yl]piperazine), each being administered at a dose not higher than 20 mg/kg body weight/day), or by vehicle only (no active compound). Mice treatment by means of vehicle or a compound of the invention started 2 days before administration of paraquat.
At the end of the treatment period, mice were sacrificed and the corresponding brains were used for immunohistochemical analysis. […] Using antibodies raised against tyrosin hydroxylase (anti-tyrosin hydroxylase), tyrosine hydroxylase containing neurons in the brains were detected.
Three groups of mice were treated with either paraquat and compound 53 (group 3; n=6), or paraquat and vehicle of compound 53 (group 2; n=4), or vehicle paraquat and vehicle of compound 53 (group 1; n=3). […] Per mouse, the median % TH-positive areas (of the substantia nigra regions) was determined. […]

[2] = paraquat-treated M17-SYNwt cells
[3] = inhibition of synuclein cytotoxicity, paraquat-treated M17-SYNwt cells, 10 point curves in duplicate
[4] = Table 3, tested according to the procedure of example 12

CCCCCCCCS(=O)(=O)N1CCN(c2nc(Cc3ccc(C)cc3)ns2)CC1 [Compound 82, 1-(octylsulfonyl)-4-[3-(4-methylbenzyl)-1,2,4-thiadiazol-5-yl]piperazine]
% I (M17-SYNwt cells; [2]): 50%

O=S(=O)(Cc1ccccc1)N1CCN(c2nc(Cc3ccc(Cl)cc3)ns2)CC1 [Compound 76, 1-(benzylsulfonyl)-4-[3-(4-chlorobenzyl)-1,2,4-thiadiazol-5-yl]piperazine]
% I (M17-SYNwt cells; [2]): 40%

CC1CN(c2nc(Cc3ccc(F)cc3)ns2)CCN1S(=O)(=O)c1cccc(C(F)(F)F)c1 (stereo not drawn) [Compound 46, 1-[3-trifluorophenylsulfonyl]-4-[3-(4-fluorobenzyl)-1,2,4-thiadiazol-5-yl]-2-methylpiperazine]
EC50 (M17-SYNwt cells; [3]): 1.34 µg/mL
% I (M17-SYNwt cells; [2]): 64%

CCCCCCc1ccc(C(=O)NCCN2CCN(c3nc(Cc4ccc(F)cc4)ns3)CC2)cc1 [Compound 96, 4-hexyl-N-{2-[4-[3-(4-fluorobenzyl)-1,2,4-thiadiazol-5-yl]piperazin-1-yl]ethyl}benzamide]
EC50 (M17-SYNwt cells; [3]): 0.8 µg/mL

CCCCS(=O)(=O)N1CCN(c2nc(Cc3ccc(Cl)cc3)ns2)CC1 [Compound 81, 1-(butylsulfonyl)-4-[3-(4-chlorobenzyl)-1,2,4-thiadiazol-5-yl]piperazine]
% I (M17-SYNwt cells; [2]): 80%

CC(C)(C)c1ccc(S(=O)(=O)N2CCN(c3nc(Cc4ccc(F)cc4)ns3)CC2)cc1 [Compound 61, 1-[4-ter-butylphenylsulfonyl]-4-[3-(4-fluorobenzyl)-1,2,4-thiadiazol-5-yl]piperazine]
% I (M17-SYNwt cells; [2]): 47%

Cc1ccccc1NC(=O)N1CCN(c2nc(Cc3ccc(F)cc3)ns2)CC1C (stereo not drawn) [Compound 10, N-(2-methylphenyl)-4-[3-(4-fluorobenzyl)-1,2,4-thiadiazol-5-yl]-2-methylpiperazine-1-carboxamide]
EC50 (M17-SYNwt cells; [3]): 0.6 µg/mL

O=C(c1cccc(F)c1)N1CCN(c2nc(Cc3ccc(Cl)cc3)ns2)CC1 [Compound 157, 1-(3-fluorobenzoyl)-4-[3-(4-chlorobenzyl)-1,2,4-thiadiazol-5-yl]piperazine]
% I (M17-SYNwt cells; [2]): 70%

CC1CN(c2nc(Cc3ccc(F)cc3)ns2)CCN1S(=O)(=O)c1ccc(C(C)(C)C)cc1 (stereo not drawn) [Compound 54, 1-[4-tert-butylphenylsulfonyl]-4-[3-(4-fluorobenzyl)-1,2,4-thiadiazol-5-yl]-2-methylpiperazine]
% I (M17-SYNwt cells; [2]): 60%

CCC(=O)Oc1ccc(S(=O)(=O)N2CCN(c3nc(Cc4ccc(F)cc4)ns3)CC2)cc1 [Compound 200, 1-(4-propionyloxy)benzene-sulfonyl-4-[3-(4-fluoro-benzyl)-1,2,4-thiadiazol-5-yl]piperazine]
% I (M17-SYNwt cells; [2]): 80%

O=S(=O)(c1ccc2ccccc2c1)N1CCN(c2nc(Cc3ccc(Cl)cc3)ns2)CC1 [Compound 52, 1-[2-naphthylsulfonyl]-4-[3-(4-chlorobenzyl)-1,2,4-thiadiazol-5-yl]piperazine]
EC50 (M17-SYNwt cells; [3]): 0.1 µg/mL

Cc1ccc(Cc2nsc(N3CCN(C(=O)c4ccc(Br)cc4)CC3)n2)cc1 [Compound 164, 1-(4-bromobenzoyl)-4-[3-(4-methylbenzyl)-1,2,4-thiadiazol-5-yl]piperazine]
% I (M17-SYNwt cells; [2]): 60%

CCOc1ccc(NC(=O)N2CCN(c3nc(Cc4ccc(F)cc4)ns3)CC2C)cc1 (stereo not drawn) [Compound 14, N-(4-ethoxyphenyl)-4-[3-(4-fluorobenzyl)-1,2,4-thiadiazol-5-yl]-2-methylpiperazine-1-carboxamide]
% I (M17-SYNwt cells; [2]): 70%

COc1ccc(S(=O)(=O)N2CCN(c3nc(Cc4cccc(OC)c4)ns3)CC2C)cc1 (stereo not drawn) [Compound 208, 1-[4-methoxyphenylsulfonyl]-4-[3-(3-methoxybenzyl)-1,2,4-thia-diazol-5-yl]-2-methyl-piperazine]
% inh. (M17-SYNwt cells; [4]): 92%

O=C(c1ccccc1)N1CCN(c2nc(Cc3ccc(F)cc3)ns2)CC1 [Compound 181, 1-benzoyl-4-[3-(4-fluorobenzyl)-1,2,4-thiadiazol-5-yl]piperazine]
% I (M17-SYNwt cells; [2]): 60%

COc1ccc(S(=O)(=O)N2CCN(c3nc(Cc4cccc(OC)c4)ns3)CC2)cc1 [Compound 53, 1-[4-methoxyphenylsulfonyl]-4-[3-(3-methoxybenzyl)-1,2,4-thiadiazol-5-yl]piperazine]
EC50 (M17-SYNwt cells; [3]): 0.00066 µg/mL
protection of TH-positive substantia nigra area against paraquat-triggered degeneration [1]: inhibition of paraquat-triggered degeneration of substantia nigra cells; also recorded: protects dopaminergic substantia nigra neurons against paraquat-triggered degeneration

CCCCCc1ccc(C(=O)NCCN2CCN(c3nc(Cc4ccc(F)cc4)ns3)CC2)cc1 [Compound 94, 4-pentyl-N-{2-[4-[3-(4-fluorobenzyl)-1,2,4-thiadiazol-5-yl]piperazin-1-yl]ethyl}benzamide]
% I (M17-SYNwt cells; [2]): 90%

Cc1ccc(C(=O)N2CCN(c3nc(Cc4ccc(F)cc4)ns3)CC2C)cc1 (stereo not drawn) [Compound 139, 1-(4-methylbenzoyl)-4-[3-(4-fluorobenzyl)-1,2,4-thiadiazol-5-yl]-2-methylpiperazine]
EC50 (M17-SYNwt cells; [3]): 0.4 µg/mL

CC1CN(c2nc(Cc3ccc(F)cc3)ns2)CCN1C(=O)CCc1ccccc1 (stereo not drawn) [Compound 89, 1-(3-phenylpropanoyl)-4-[3-(4-fluorobenzyl)-1,2,4-thiadiazol-5-yl]-2-methylpiperazine]
EC50 (M17-SYNwt cells; [3]): 0.6 µg/mL

CC1CN(c2nc(Cc3ccc(F)cc3)ns2)CCN1C(=O)c1cccc(C(F)(F)F)c1 (stereo not drawn) [Compound 145, 1-(3-trifluoromethylbenzoyl)-4-[3-(4-fluorobenzyl)-1,2,4-thiadiazol-5-yl]-2-methylpiperazine]
% I (M17-SYNwt cells; [2]): 60%

O=C(NCCN1CCN(c2nc(Cc3ccc(F)cc3)ns2)CC1)c1ccc(F)cc1 [Compound 102, 4-fluoro-N-{2-[4-[3-(4-fluorobenzyl)-1,2,4-thiadiazol-5-yl]piperazin-1-yl]ethyl}benzamide]
% I (M17-SYNwt cells; [2]): 80%

Cc1ccc(Cc2nsc(N3CCN(S(=O)(=O)c4cc(Cl)ccc4Cl)C(C)C3)n2)cc1 (stereo not drawn) [Compound 36, 1-[2,5-dichlorophenylsulfonyl]-4-[3-(4-methylbenzyl)-1,2,4-thiadiazol-5-yl]-2-methylpiperazine]
EC50 (M17-SYNwt cells; [3]): 0.1 µg/mL

CC1CN(c2nc(Cc3ccc(F)cc3)ns2)CCN1C(=O)Nc1ccc(F)c(F)c1 (stereo not drawn) [Compound 26, N-(3,4-difluorophenyl)-4-[3-(4-fluorobenzyl)-1,2,4-thiadiazol-5-yl]-2-methylpiperazine-1-carboxamide]
% I (M17-SYNwt cells; [2]): 70%

O=S(=O)(c1cccs1)N1CCN(c2nc(Cc3ccc(F)cc3)ns2)CC1 [Example 50, 1-[thiophen-2-ylsulfonyl]-4-[3-(4-fluoro-benzyl)-1,2,4-thiadiazol-5-yl]piperazine]
EC50 (M17-SYNwt cells; [4]): 0.468 µM
% inh. (M17-SYNwt cells; [4]): 89%

Cc1ccc(Cc2nsc(N3CCN(C/C=C/c4ccccc4)CC3)n2)cc1 [Compound 91, 1-[3-phenylprop-2-enyl]-4-[3-(4-methylbenzyl)-1,2,4-thiadiazol-5-yl]piperazine]
% I (M17-SYNwt cells; [2]): 90%

COc1ccc(S(=O)(=O)N2CCN(c3nc(Cc4ccc(F)c(C)c4)ns3)CC2)cc1 [Compound 204]
EC50 (M17-SYNwt cells; [3]): 0.001 µg/mL
% I (M17-SYNwt cells; [2]): 90%

O=S(=O)(c1ccc(O)cc1)N1CCN(c2nc(Cc3ccc(F)cc3)ns2)CC1 [Compound 217, 1-(4-hydroxybenzenesulfonyl)-4-[3-(4-fluoro-benzyl)-1,2,4-thiadiazol-5-yl]piperazine]
EC50 (M17-SYNwt cells; [3]): 0.033 µg/mL

CCCCCc1ccc(C(=O)N2CCN(c3nc(Cc4ccc(C)cc4)ns3)CC2C)cc1 (stereo not drawn) [Compound 134, 1-(4-pentylbenzoyl)-4-[3-(4-methylbenzyl)-1,2,4-thiadiazol-5-yl]-2-methylpiperazine]
EC50 (M17-SYNwt cells; [3]): 0.3 µg/mL

O=C(Cc1ccc(F)cc1)NCCN1CCN(c2nc(Cc3ccc(F)cc3)ns2)CC1 [Compound 107, 2-(4-fluorophenyl)-N-{2-[4-[3-(4-fluorobenzyl)-1,2,4-thiadiazol-5-yl]piperazin-1-yl]ethyl}acetamide]
% I (M17-SYNwt cells; [2]): 80%

CC1CN(c2nc(Cc3ccc(F)cc3)ns2)CCN1C(=O)c1cccc(Br)c1 (stereo not drawn) [Compound 142, 1-(3-bromobenzoyl)-4-[3-(4-fluorobenzyl)-1,2,4-thiadiazol-5-yl]-2-methylpiperazine]
EC50 (M17-SYNwt cells; [3]): 0.5 µg/mL

Cc1cccc(C)c1NC(=O)N1CCN(c2nc(Cc3ccc(F)cc3)ns2)CC1C (stereo not drawn) [Compound 19, N-(2,6-dimethylphenyl)-4-[3-(4-fluorobenzyl)-1,2,4-thiadiazol-5-yl]-2-methylpiperazine-1-carboxamide]
EC50 (M17-SYNwt cells; [3]): 0.2 µg/mL
reduction of LDH activity in the medium (inhibition of α-synuclein mediated toxicity), FIG. 2 (M17-SYNwt cells; paraquat-treated M17-SYNwt cells, dose response): inhibition of α-synuclein mediated toxicity; also recorded: able, in a dose-dependent manner, to reduce LDH activity in the medium
